From BindingDB's records for doi:10.3109/14756360903179435 (Jamia Hamdard, 2010)

Tests used:
[1] = molecular target: T1, Prostaglandin G/H synthase 1 (Ovis aries, UniProt P05979); assay: In Vitro Cyclo-Oxygenase Inhibition Assay
T1 sequence (P05979 whole entry): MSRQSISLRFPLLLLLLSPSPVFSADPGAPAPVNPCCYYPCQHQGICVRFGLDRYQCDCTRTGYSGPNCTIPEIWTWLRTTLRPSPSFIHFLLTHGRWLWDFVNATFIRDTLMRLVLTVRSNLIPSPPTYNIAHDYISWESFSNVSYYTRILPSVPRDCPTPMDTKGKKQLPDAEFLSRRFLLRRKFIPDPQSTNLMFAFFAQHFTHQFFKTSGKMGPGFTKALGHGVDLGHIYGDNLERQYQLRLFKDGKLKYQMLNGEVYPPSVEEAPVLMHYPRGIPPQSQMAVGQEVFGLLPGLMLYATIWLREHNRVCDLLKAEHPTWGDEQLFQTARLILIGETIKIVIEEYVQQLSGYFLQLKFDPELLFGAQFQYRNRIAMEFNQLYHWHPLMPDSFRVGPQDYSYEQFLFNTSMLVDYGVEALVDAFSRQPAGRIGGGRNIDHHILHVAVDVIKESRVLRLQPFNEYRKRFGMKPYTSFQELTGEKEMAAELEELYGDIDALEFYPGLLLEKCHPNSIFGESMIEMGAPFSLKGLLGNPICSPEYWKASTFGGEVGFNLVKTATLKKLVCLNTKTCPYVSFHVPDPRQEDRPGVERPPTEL
Description: (§1) Inhibition of the enzymes was determined using an enzyme immunoassay (EIA) kit (catalog no. 560101, Cayman Chemical, Ann Arbor, MI, USA) according to the methodology described by Jashim Uddin et al. [Jashim Uddin et al., Bioorg. Med. Chem., 12:5929-40].

[2] = molecular target: T2, Prostaglandin G/H synthase 2 (Ovis aries, UniProt P79208); assay: In Vitro Cyclo-Oxygenase Inhibition Assay
T2 sequence (P79208 whole entry): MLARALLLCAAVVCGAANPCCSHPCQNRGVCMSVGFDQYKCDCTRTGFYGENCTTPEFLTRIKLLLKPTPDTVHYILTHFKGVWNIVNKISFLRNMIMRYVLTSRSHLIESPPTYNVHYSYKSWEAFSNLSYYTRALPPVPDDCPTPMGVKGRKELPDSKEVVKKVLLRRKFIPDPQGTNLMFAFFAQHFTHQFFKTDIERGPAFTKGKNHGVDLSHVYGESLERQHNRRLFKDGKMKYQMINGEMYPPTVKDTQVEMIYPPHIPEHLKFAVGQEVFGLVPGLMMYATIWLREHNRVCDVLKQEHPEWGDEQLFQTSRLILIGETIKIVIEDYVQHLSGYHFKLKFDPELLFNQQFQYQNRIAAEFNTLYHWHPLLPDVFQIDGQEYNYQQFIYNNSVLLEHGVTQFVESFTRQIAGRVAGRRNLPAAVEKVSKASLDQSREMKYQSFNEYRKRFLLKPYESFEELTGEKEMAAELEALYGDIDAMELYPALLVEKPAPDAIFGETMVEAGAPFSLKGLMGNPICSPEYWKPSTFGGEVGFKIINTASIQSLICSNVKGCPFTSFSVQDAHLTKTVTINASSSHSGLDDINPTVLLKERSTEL
Description: as §1

IC50 [1] [µM] | IC50 [2] [µM] | SMILES
48.2 | 2.2 | CC(C)Cc1ccc(C2=C/C(=C\c3ccc(Cl)cc3Cl)C(=O)O2)cc1 [3-(2,4-Dichlorobenzylidene)-5-(4-isobutylphenyl)-2(3H)-furanone (14)]
52.4 | 2.4 | CC(C)Cc1ccc(C2=C/C(=C\c3ccccc3Cl)C(=O)O2)cc1 [3-(2-Chlorobenzylidene)-5-(4-isobutylphenyl)-2(3H)-furanone (3)]
47.6 | 1.8 | CC(C)Cc1ccc(C2=C/C(=C\c3c(Cl)cccc3Cl)C(=O)O2)cc1 [3-(2,6-Dichlorobenzylidene)-5-(4-isobutylphenyl)-2(3H)-furanone (13)]
68.3 | 3.8 | CC(C)Cc1ccc(C2=C/C(=C\c3ccc(F)cc3)C(=O)O2)cc1 [3-(4-Fluorobenzylidene)-5-(4-isobutylphenyl)-2(3H)-furanone (9)]
